Measurements from paper PMC7796031, “Studies of Coumarin Derivatives for Constitutive Androstane Receptor (CAR) Activation” (Molecules, 2020).

What was measured:
[1] = target: T1, Constitutive androstane receptor (CAR) (Homo sapiens, UniProt Q14994); experiment: In vitro CAR activation screening assay (UGT1A1 promoter gtPBREM-pGL4 luciferase reporter in Hep3B-gtPBREM cells); type: cell-based
T1 construct: The pGL4-gtPBREM plasmid was transfected into Hep3B cells; endogenous in cells
T1 sequence (Q14994 1-352): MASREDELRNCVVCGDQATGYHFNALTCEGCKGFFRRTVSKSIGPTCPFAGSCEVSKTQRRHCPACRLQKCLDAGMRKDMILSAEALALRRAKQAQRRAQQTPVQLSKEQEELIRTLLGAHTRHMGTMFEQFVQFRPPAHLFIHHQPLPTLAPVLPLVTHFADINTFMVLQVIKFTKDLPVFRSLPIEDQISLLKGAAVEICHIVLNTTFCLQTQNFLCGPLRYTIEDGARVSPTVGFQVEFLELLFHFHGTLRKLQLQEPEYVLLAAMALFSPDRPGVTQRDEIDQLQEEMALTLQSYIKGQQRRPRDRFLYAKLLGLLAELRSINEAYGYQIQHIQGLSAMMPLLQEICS
Source text: Until now, there is no commercially available high throughput screening method for CAR activation. Traditionally, CAR activation can be detected in western blots by its downstream signals such as UGT1A1, MRP2 or CYP2B6. […] However, this method was slow and pricy. In order to rapidly screen all the compounds for CAR activation at less cost, an in vitro CAR activation screening assay was developed: DNA was extracted from Hep3B cells and UGT1A1 promoter was obtained using PCR amplification. Ligation between UGT1A1 promoter and pGL4 vector was performed and the plasmid was amplified via E. coli replication. The desired plasmid was extracted from E. coli and transfected into Hep3B. The desired colony bearing UGT1A1 promoter-pGL4 plasmid was selected by neomycin. CAR activation was measured by adding tested compounds to Hep3B for several hours and luminescence was measured. Higher activation will get higher luminescence readout. This assay system was validated with two different CAR agonists: CITCO (direct agonist) and scoparone (an indirect agonist). […] Different concentration of scoparone at 1, 5, 10 and 20 μM had been tested either for luciferase assay or downstream UGT1A1 and MRP2 expression (data not shown) and 10 μM was selected to be the best condition for the following work.
After successfully establishing the in vitro assay, all of the coumarin compounds were subjected to the screening (at 10 μM) and their SAR was discussed. Although the reporter system can successfully identify CAR-activating compounds under 8 h and display better efficiency and sensitivity compared with western blots, it only presented a medium luciferase response. According to previous studies, CITCO was reported to only moderately enhance human CAR (less than 2-fold), compared with the enhance provided by TCPOBOP for murine CAR (5- to 10-fold) in luciferase reporter assays. […] Another possibility for the medium response in our reporter system might be the contribution of the whole gtPBREM element which might include response-suppressive elements that was used and the single nucleotide variation of DR3 element which was reported to slightly reduce the original UGT1A1 activity.
The genomic DNA was isolated from Hep3B cells using Wizard® Genomic DNA Purification Kit (Promega, Fitchburg, WI, USA). The promoter region of UGT1A1 gene, gtPBREM element, was amplified by AccuPrime^TM Taq DNA Polymerase High Fidelity Kit (Invitrogen, MA, USA). The sequence of the amplified element was confirmed by DNA sequencing company and cloned into pGL4 luciferase reporter vector. The pGL4-gtPBREM plasmid was transfected into Hep3B cells. The stable pGL4-gtPBREM transfected Hep3B cells, Hep3B-gtPBREM cells, were established after G418 selection. The luciferase activity represented of CAR activation ability was measured using individual established clone. Further, CAR-shRNA was obtained from the Genomic Research Center and transfected into Hep3B-gtPBREM cells. The transient transfected shCAR-Hep3B-gtPBREM cells were used for further luciferase assays.
The Hep3B-gtPBREM cells and shCAR-Hep3B-gtPBREM cells (1.5 × 10^5 cells/well) were seeded into 12-well plates for overnight then pre-determined concentration compounds were added for desired time. After treatment, transfected cells were washed twice in PBS, lysated with 1× passive lysis buffer and luciferase intensity of equal amount of cell lysate was measured by a Synergy HT Multi-Mode Microplate Reader (BioTek, Winooski, VT, USA).

db/db mice = experiment: In vivo hypoglycemic effect in db/db mice (OGTT, fructosamine, insulin, HOMA-IR); set-up: species or system mouse
Description: Six-week old male C57/BL6 mice (n = 6) were acquired from the Animal Center of the College of Medicine, National Taiwan University (Taipei, Taiwan) and 6-week-old male db/db mice (BKS.Cg-Dock7m +/+ Leprdb/JNarl) (n = 12) were acquired from the National Laboratory Animal Center (Tainan, Taiwan). Experimental animals were allowed to acclimate to the controlled photoperiod (a cycle of 12-h light/12-h dark), humidity (40–60% relative humidity) and temperature (22 ± 2 °C) with ad libitum supply of standard chow diets and drinking water for one week prior to the experimental treatment in accordance with the Guide for the Care and Use of Laboratory Animals (Institute of Laboratory Animal Resources Commission on Life Sciences, 2011). Acclimated animals were randomly separated into three cohorts: control group (C57/BL6 mice treated with vehicle for two weeks, n = 6), db/db group (db/db mice treated with vehicle for two weeks, n = 6), and db/db+SP group (db/db mice treated with 100 mg/kg scoparone for two weeks, n = 6). (IACUC Approval NO.: 20140532; Duration: 2015.01.01–2015.12.31; Ethical Committee: National Taiwan University College of Medicine and College of Public Health Institutional Animal Care and Use Committee (IACUC).)
The control mice or diabetic mice with or without drugs treatment for 2 weeks received an oral glucose challenge (2 g/kg). Mice were under slight anesthesia by an intraperitoneal injection of pentobarbital (50 mg/kg) and blood samples (20–50 μL via orbital sinus at each time point) were collected following: 0, 15, 30, 60, 90, and 120 min after delivery of the glucose load. Blood glucose levels were determined using SURESTEP blood glucose meter (Lifescan). Glucose tolerance was determined and performed as the curve (AUC) and delta AUC (ΔAUC) using Prism 5 software (GraphPad).
To determine the amount of insulin and fructosamine after fasting overnight, blood samples (0.5–0.8 mL) of euthanasia animals were collected. After centrifugation, the serum was analyzed by insulin and fructosamine immunoassay kits according to the respective instructions of the manufacturer (Mercodia AB Inc., Uppsala, Sweden; Hospitex Diagnostics Lp, League City, TX, USA). The homeostasis model assessment of insulin resistance (HOMA-IR) index is calculated with the formula of the values of fasting glucose and insulin divided by 22.5 as previously described.

bile salt export pump = tested on: bile salt export pump; set-up: method as in PMID 21649640; settings: scoparone 10 μM with chenodeoxycholic acid 10 μM; cited from earlier work
[2] = db/db mice, 100 mg/kg P.O., two weeks

luciferase activity ([1]; assay validation, positive control, indirect agonist)	increased CAR activation fold ([1]; 10 μM, compared to scoparone) [%]	activation at 10 µM ([1]; Table 2, 10 μM, (luminescence of compound − luminescence of scoparone)/luminescence of scoparone × 100%, read-out: CAR Activation Fold) [%]	SMILES	HOMA-IR (db/db mice; [2])	insulin level (db/db mice; [2])	level of fructosamine (db/db mice; [2])	oral glucose tolerance test (OGTT) (db/db mice; [2])	effect on chenodeoxycholic acid-increased expression of bile salt export pump (bile salt export pump)	in vivo efficacy (blood sugar lowering) (db/db mice; even by intraperitoneal injection)
enhance luciferase activity			COc1cc2ccc(=O)oc2cc1OC [Compound 39, scoparone]	did not change	did not change	decreased	significant improvement	potentiated	
	50	50	CC(C)=CCOc1cc2ccc(=O)oc2cc1OCC=C(C)C [Compound 50, 6,7-diprenoxycoumarin]						didn’t show any in vivo efficacy
